Results from patent US20150065709A1, “Aminoquinazoline Derivative And Use Thereof In Preparing Anti-Malignant Tumor Medicament” (METABOMICS, INC, priority 2012, published 2015).
Read-outs that look alike come from different tables or passages of the source.

Experiments:
[1] = Pharmacokinetic experiments in CD-1 mice; assay type: in vivo; settings: male, mouse, plasma; for half-life: read-out: Terminal t1/2 (converted)
Experimental: Experiment animals: CD-1 mice, male, 6-7 weeks of age; body weight: 20-25 g; Preparation of samples: the test compounds respectively were formulated to 0.2 mg/mL (for intravenous administration) and 1.0 mg/mL (for oral administration) for use. Administration routes: oral administration/intravenous administration. Amount and frequency of administration: 5 mL/kg for single administration.
Sample collection: blood was collected at the time points of 5 min, 15 min, 30 min, 1 h, 2 h, 4 h, 8 h and 24 h, about […] whole blood was collected from 3 animals at each time point. All of the animals were euthanized after the experiments.
Sample analysis: the collected samples were detected by LC-MS/MS, and the instrument model is SHIMADZU20A-API4000.
Pharmacokinetic data analysis: the obtained plasma concentration data were fitted and calculated using WinNolin according to non-compartment model.

EGFR kinases = EGFR kinases (Homo sapiens, UniProt P00533); test: Reversible inhibition test of enzyme activity of EGFR kinases; assay type: biochemical
N87(gastric cancer) = test: Transplanted tumor in nude mice, N87 model; assay type: in vivo, nude mice (BALB/c)
Text: (§1) Furthermore, more pharmacological models of tumor cell lines in nude mice were utilized to validate the inhibitory effects of compound Ie. The test method was specifically described as follows: H1975, A549, HCC827, A431, N87, MDA-MD-468 and CAL27 tumor cells respectively were inoculated into nude mice (BALB/c, male, 5-6 weeks of age), and when the mean tumor volume reaches 150 mm^3 mice was randomized into groups. The H1975 tumor model in nude mice includes one positive control group and three dosage groups of compound Ie (6.7 mg/kg/day, 13.4 mg/kg/day, and 20.1 mg/kg/day. The A549 tumor model in nude mice includes one positive control group, two dosage groups of compound Ie (10 mg/kg/day, 20 mg/kg/day), and one dosage group of Docetaxel (12 mg/kg/day). The HCC827 tumor model in nude mice includes one positive control group, two dosage groups of compound Ie (0.5 mg/kg/day, 2.5 mg/kg/day), and one dosage group of Erlotinib (12.5 mg/kg/day). The A431 tumor model in nude mice includes one positive control group, two dosage groups of compound Ie (2.5 mg/kg/day, 5 mg/kg/day), and one dosage group of Erlotinib (50 mg/kg/day). […] The tumor size and body weight of nude mice were recorded twice weekly from the first day of administration. The tumor volume was calculated using formula (1×w^2), wherein 1 and w respectively represents the maximum and minimum size in each measurement. […]

EGFR^L858R/T790M = EGFR^L858R/T790M (Homo sapiens, UniProt P00533, L858R/T790M); test: Caliper Mobility Shift Assay, double mutant EGFR kinase; assay type: biochemical; settings: read-out: Inhibition of Kinase Activity (IC50, nM) EGFR^L858R/T790M
Experimental: Half maximal inhibitory concentration IC50 (the concentration of a compound that is required for 50% inhibition of the activity of an enzyme) was tested based on an immobilized enzyme mixing with a specific substrate and the test compounds in different concentrations. The used test method was Caliper Mobility Shift Assay. […] […].
According to the same test method, the inhibitory effects of the compound of Formula Ie on mutant EGFR kinases were tested, including single mutant EGFR^LS58R, EGFR^T790M and double mutant EGFR^L858R/T790M kinases.

EGFR^L858R = EGFR^L858R (Homo sapiens, UniProt P00533, L858R); test: Caliper Mobility Shift Assay, mutant EGFR kinase; assay type: biochemical; settings: read-out: Inhibition of Kinase Activity (IC50, nM) EGFR^L858R
[2] = tested on: HCC827 (non-small cell lung cancer); test: Transplanted tumor in nude mice, HCC827 model; assay type: in vivo, nude mice (BALB/c)
Text: as §1

EGFR^L858R, sequence (P00533 25-1210 L858R): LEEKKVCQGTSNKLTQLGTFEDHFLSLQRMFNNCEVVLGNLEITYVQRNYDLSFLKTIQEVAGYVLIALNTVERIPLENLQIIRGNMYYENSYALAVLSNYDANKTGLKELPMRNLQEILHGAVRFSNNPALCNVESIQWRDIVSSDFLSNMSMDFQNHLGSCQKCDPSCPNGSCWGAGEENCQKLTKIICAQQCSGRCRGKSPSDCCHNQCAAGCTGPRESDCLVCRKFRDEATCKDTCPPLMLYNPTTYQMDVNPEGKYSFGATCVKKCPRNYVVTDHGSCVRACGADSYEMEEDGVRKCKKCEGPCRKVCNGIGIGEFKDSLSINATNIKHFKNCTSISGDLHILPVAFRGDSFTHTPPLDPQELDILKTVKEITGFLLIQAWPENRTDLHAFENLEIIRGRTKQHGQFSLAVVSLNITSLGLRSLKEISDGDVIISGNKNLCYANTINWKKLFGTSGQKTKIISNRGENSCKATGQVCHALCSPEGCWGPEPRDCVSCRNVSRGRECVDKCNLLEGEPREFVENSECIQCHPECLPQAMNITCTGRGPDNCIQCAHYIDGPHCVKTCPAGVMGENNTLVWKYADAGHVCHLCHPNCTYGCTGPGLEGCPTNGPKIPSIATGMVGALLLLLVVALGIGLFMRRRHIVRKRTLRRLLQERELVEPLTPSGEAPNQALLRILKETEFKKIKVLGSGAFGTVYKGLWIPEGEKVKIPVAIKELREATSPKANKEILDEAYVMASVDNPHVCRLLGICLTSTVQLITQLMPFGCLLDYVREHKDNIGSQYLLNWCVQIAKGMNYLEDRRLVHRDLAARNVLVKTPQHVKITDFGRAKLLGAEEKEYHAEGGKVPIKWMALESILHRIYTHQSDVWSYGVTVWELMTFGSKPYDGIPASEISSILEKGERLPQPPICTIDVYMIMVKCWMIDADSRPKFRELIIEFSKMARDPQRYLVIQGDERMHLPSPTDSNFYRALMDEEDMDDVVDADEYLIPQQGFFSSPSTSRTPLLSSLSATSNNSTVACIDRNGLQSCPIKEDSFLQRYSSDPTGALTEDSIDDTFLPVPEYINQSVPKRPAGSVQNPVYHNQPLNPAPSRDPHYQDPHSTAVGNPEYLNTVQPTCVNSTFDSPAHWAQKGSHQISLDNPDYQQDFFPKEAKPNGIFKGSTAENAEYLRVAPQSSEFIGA
EGFR kinases, sequence (P00533 25-1210): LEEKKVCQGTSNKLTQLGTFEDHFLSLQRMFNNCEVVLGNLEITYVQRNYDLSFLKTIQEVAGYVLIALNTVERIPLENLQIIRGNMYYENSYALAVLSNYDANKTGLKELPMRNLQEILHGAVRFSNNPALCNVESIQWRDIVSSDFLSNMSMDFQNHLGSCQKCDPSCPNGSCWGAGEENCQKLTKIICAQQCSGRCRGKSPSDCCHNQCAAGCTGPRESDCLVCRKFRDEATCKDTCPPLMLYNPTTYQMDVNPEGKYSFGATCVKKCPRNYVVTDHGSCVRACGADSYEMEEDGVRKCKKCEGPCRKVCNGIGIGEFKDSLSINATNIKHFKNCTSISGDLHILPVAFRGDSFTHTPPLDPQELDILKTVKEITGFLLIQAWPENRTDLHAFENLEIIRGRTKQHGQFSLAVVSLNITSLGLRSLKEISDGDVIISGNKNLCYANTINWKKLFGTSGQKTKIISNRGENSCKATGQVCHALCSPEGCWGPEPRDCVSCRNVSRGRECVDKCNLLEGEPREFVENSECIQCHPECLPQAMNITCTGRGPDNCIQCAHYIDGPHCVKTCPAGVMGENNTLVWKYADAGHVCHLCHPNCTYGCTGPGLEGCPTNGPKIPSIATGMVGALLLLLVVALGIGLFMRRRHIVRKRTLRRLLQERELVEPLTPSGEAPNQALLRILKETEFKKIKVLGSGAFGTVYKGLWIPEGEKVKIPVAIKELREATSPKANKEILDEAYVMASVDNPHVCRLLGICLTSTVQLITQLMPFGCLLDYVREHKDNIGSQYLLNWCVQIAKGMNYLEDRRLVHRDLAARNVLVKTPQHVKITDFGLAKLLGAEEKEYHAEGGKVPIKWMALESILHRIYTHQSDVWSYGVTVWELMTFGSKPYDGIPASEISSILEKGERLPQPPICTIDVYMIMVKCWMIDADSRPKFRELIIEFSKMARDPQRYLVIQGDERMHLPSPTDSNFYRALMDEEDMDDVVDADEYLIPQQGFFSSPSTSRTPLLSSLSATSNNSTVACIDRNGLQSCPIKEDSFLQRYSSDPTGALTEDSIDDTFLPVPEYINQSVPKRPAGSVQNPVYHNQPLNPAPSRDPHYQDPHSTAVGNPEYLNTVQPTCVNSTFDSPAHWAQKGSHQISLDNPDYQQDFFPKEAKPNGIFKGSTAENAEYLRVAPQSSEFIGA
EGFR^L858R/T790M, sequence (P00533 25-1210 T790M/L858R): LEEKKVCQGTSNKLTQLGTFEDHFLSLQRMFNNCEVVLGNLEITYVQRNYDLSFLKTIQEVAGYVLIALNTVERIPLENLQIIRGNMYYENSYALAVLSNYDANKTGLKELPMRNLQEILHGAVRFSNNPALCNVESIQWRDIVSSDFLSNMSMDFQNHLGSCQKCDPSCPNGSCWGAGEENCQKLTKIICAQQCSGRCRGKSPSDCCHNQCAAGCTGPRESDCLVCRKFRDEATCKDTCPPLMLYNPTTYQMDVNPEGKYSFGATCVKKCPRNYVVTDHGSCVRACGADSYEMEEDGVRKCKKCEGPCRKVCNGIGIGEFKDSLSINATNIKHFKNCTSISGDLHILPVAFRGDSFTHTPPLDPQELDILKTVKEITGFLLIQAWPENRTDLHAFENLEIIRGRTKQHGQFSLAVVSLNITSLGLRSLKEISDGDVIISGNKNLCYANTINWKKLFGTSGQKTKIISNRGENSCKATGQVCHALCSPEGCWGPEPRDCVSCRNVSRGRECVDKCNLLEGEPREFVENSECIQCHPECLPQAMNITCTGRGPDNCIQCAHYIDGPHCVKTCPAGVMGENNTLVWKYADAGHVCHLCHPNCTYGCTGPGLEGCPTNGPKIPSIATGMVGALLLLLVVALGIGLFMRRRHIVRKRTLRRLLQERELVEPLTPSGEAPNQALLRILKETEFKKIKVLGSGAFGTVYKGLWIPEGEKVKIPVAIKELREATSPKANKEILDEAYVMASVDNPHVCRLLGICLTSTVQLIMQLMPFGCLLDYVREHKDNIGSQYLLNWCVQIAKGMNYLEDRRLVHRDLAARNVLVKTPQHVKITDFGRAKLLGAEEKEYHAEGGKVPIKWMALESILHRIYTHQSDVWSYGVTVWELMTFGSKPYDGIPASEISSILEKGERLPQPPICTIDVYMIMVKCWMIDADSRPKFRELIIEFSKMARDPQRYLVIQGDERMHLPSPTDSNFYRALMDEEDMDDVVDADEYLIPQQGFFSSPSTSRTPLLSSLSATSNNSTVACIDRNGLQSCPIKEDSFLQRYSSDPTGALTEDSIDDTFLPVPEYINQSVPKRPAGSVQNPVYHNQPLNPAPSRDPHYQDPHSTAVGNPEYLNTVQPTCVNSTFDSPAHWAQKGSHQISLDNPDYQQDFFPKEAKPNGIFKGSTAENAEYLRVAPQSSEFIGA

## CN(C)C/C=C/C(=O)Nc1cc2c(Nc3ccc(F)c(Cl)c3)ncnc2cc1OC(F)F [Compound Ie]
[1]; 1 mg/kg Intravenous Injection
  AUC(0-inf): 167 ng·h/mL
  AUC(0-t): 137 ng·h/mL
  MRT inf: 2.88 h
  clearance: 115 mL/min/kg
  half-life: 2.31 h
[1]; 1 mg/kg Intravenous Injection, read-out: Vss
  Vd: 18.9 L/kg
[1]; 5 mg/kg Oral Administration
  AUC(0-inf): 1600 ng·h/mL
  AUC(0-t): 1150 ng·h/mL
  Cmax: 92.3 ng/mL
  Tmax: 4.33 h
  half-life: 7.11 h
EGFR kinases
  reversibility of inhibition of EGFR kinases: irreversibility
N87(gastric cancer); 5, 10 mg/kg/day orally for 21 days
  inhibitory and therapeutic effects on N87 tumor model: strong inhibitory effects and therapeutic effects
N87(gastric cancer); versus Lapatinib (90 mg/kg/day, twice daily)
  inhibitory effects on tumor cell growth compared with other drugs, N87 model: stronger inhibitory effects
EGFR^L858R/T790M
  IC50: 11 nM
EGFR^L858R
  IC50: 0.65 nM
[2]; 0.5, 2.5 mg/kg/day orally for 21 days
  inhibitory and therapeutic effects on HCC827 tumor model: strong inhibitory effects and therapeutic effects
[2]; versus Erlotinib (12.5 mg/kg/day)
  inhibitory effects on tumor cell growth compared with other drugs, HCC827 model: stronger inhibitory effects
